Experimental data: patent US7514257B2, “Zinc finger transcription factor differentiation proteins” (ToolGen, Inc., priority 2001, dated 2009)

Legend:
[1] = system: human insulin gene; assay: Insulin gene expression in stably transfected 293 cells (DNA microarray); format: cell-based; settings: stably transfected human 293 cells
From the text: We stably transfected nucleic acids encoding chimeric zinc finger proteins in human 293 cell lines, and analyzed transformed cells using DNA microarray experiments to characterize genes regulated by each chimeric zinc finger protein (see FIGS. 4, 5, and 9). We have identified a chimeric zinc finger protein (08_D04-p65) that increases the expression of human insulin gene more than 60 fold.
Nucleic acids encoding zinc finger proteins were stably introduced into FlpTRex-293 cell lines (Invitrogen) essentially as described in the manufacturer's protocols. Briefly, the HindIII-XhoI fragment from the pLFD-p65 or pLFD-Kid vectors was subcloned into pcDNA5/FRT/TO (Invitrogen Calif.). This fragment includes a sequence encoding the zinc finger proteins. Resulting plasmids were cotransfected into FlpTRex-293 cells with pOG44 (Invitrogen). Stable integrants that express ZFP-TFs upon doxycycline induction were obtained.
DNA microarrays containing 7458 human EST clones were obtained from Genomictree (Korea). FlpTRex-293 cells stably expressing ZFP-TFs were grown with (+Dox) or without Dox) 1 μg/ml Doxycycline for 48 hours. Total RNA was prepared from each sample. RNA from the −Dox sample was used as a reference (Cy3), and +Dox as the experimental sample (Cy5). […] Spots with sum of median less than 500 were colored red and not analyzed.

[2] = system: human insulin gene; assay: Insulin gene expression in transiently transfected HeLa cells; format: cell-based
From the text: To test whether 08_D04-p65 can induce insulin gene expression in different human cell lines, we transiently transfected a nucleic acid encoding 08_D04-p65 into HeLa cells. Expression of the nucleic acid in HeLa cells caused a 80 fold increase in expression of the insulin gene.
Nucleic acids encoding certain zinc finger proteins were also expressed in HeLa cells. pLFD-p65 containing 08-D04 ZFP was transiently transfected into HeLa cells using LIPOFECTAMINE™ 2000 (Invitrogen).

“08_D04-p65: ZFP RSHR-RDHT-VSSR with p65 activation domain (SEQ ID NO:6)” was tested, and the “increase in expression of human insulin gene” value [1] was “more than 60 fold” and the “increase in expression of the insulin gene” value [2] was 80 fold.
